Results from patent US20060099157A1, “Ether alcohols used as solvents and emulsifiers and dispersions containing said ether alcohols” (IFAC GmbH & Co. KG, priority 2002, published 2006).

Experiments:
[1] = Solution in polyethylene glycol monomethyl ether (7 EO); assay type: physicochemical; conditions: dissolved in polyethylene glycol monomethyl ether (7 EO), room temperature, based on the total solution
Text: A solution was accessible which, based on the total solution, comprised 60% by weight of the light protection agent.
The light protection agent 2-hydroxy-4-methoxybenzophenone (benzophenone-3) could be dissolved at room temperature in polyethylene glycol monomethyl ether (7 EO), the fraction of light protection agent in the solution being more than 30% by weight.
2-Hydroxy-4-methoxybenzophenone-5-sulfonic acid could be dissolved in polyethylene glycol monomethyl ether (7 EO), the resulting solution comprising more than 10% by weight of the light protection agent. The per se water-soluble light protection agent could be introduced into an oil phase as polyethylene glycol monomethyl ether (7 EO) solution so that it could be used in this formulation as oil-soluble light protection filter.
(§1) Salicylic acid was dissolved at room temperature in polyethylene glycol monomethyl ether (7 EO). A solution was accessible which comprised more than 10% by weight of salicylic acid in the acid form. The solution could be introduced in any fractions into C12-C15-alcohol benzoate without resulting in precipitation of the salicylic acid.

[2] = Mixing of the ether alcohol solution into C12-C15-alcohol benzoate, stability of the resulting system; assay type: physicochemical; conditions: for miscibility of the solution with C12-C15-alcohol benzoate: solution in polyethylene glycol monomethyl ether (7 EO)
Experimental: At room temperature (25° C.), a storage time of more than 7 days was determined without resulting in flocculation or phase separation.
as §1

[3] = cited from earlier work

Structure (SMILES) | fraction of the compound in the accessible solution [1] | storage time without flocculation or phase separation ([2]; 60% strength solution in C12-C15-alcohol benzoate, room temperature (25° C.)) | miscibility of the solution with C12-C15-alcohol benzoate [2] | fraction of light protection agent in solutions hitherto accessible [3]
CCCCC(CC)COC(=O)c1ccc(Nc2nc(Nc3ccc(C(=O)OCC(CC)CCCC)cc3)nc(Nc3ccc(C(=O)OCC(CC)CCCC)cc3)n2)cc1 (centres unmarked) [2,4,6-trianilino-p-(carbo-2′-ethylhexyl-1′-oxy)-1,3,5-triazine] | 60 % by weight | more than 7 days | any mixing ratios | 
COc1cc(O)c(C(=O)c2ccccc2)cc1S(=O)(=O)O [2-Hydroxy-4-methoxybenzophenone-5-sulfonic acid] | more than 10 % by weight |  |  | 
COc1ccc(C(=O)c2ccccc2)c(O)c1 [2-hydroxy-4-methoxybenzophenone] | more than 30 % by weight |  |  | at most 20 % by weight
O=C(O)c1ccccc1O [Salicylic acid, reference compound] | more than 10 % by weight |  | any fractions | 
